Experimental data as given in publication PMC11367390 (RSC Advances, 2024).

Molecular target: α-Glucosidase from Saccharomyces cerevisiae (Saccharomyces cerevisiae, UniProt P53341)
Experiment: In vitro α-glucosidase inhibition study
Settings: for IC50: IC50, μM, average value ± standard deviation, p-nitrophenyl α-D-glucoside substrate, pH 6.8, 37 °C; for inhibition at 25 µM: pH 6.8, read-out: Inhibition at 25 μM (%)

Sequence of α-Glucosidase from Saccharomyces cerevisiae (P53341 whole entry): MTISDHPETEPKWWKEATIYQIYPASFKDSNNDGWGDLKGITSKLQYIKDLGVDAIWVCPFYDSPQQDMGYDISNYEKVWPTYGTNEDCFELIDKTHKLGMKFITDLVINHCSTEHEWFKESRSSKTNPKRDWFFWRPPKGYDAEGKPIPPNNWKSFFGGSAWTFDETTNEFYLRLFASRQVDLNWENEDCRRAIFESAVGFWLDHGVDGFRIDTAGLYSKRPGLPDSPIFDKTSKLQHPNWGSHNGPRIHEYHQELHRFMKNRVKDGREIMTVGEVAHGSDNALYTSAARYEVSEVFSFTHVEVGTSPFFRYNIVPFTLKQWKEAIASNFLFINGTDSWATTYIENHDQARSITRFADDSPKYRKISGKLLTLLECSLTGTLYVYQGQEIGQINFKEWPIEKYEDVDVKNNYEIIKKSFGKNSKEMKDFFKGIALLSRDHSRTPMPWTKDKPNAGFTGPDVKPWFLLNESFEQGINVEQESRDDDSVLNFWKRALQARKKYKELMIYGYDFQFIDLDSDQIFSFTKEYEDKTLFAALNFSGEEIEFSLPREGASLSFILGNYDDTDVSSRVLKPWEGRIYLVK

Row | Compound | IC50 [µM] | inhibition at 25 µM [%]
1 | O=c1c(-c2ccc(O)cc2)coc2c(Cn3ccnc3)c(O)ccc12 [Compound 9d] | 27 ± 0.2 | 42
2 | Cc1cc(=O)oc2c(Cn3cnc4ccccc43)c(O)ccc12 [Compound 10b] | 21.1 ± 0.7 | 69.3
3 | Cc1cc(C)n(Cc2c(O)ccc3c(=O)c(-c4ccc(O)cc4)coc23)n1 [Compound 12c] | 27.4 ± 1.9 | 42.8
4 | O=c1c(-c2ccc(OC(F)(F)F)cc2)coc2c(Cn3cnc4ccccc43)c(O)ccc12 [Compound 10h] | 9.5 ± 1.6 | 99.1
5 | COc1ccc(-c2coc3c(Cn4nc(C)cc4C)c(O)ccc3c2=O)cc1 [Compound 12d] | 20.9 ± 2.5 | 67.3
6 | O=c1c(-c2ccc(OC(F)(F)F)cc2)coc2cc(O)ccc12 [Compound 6j, 7-hydroxy-4′-trifluoromethoxyisoflavone] | – | 39
7 | COc1ccc(-c2coc3c(Cn4ncc5ccccc54)c(O)ccc3c2=O)cc1 [Compound 13b] | 17.1 ± 2.8 | 73
8 | O=c1c(-c2ccc(OC(F)(F)F)cc2)coc2c(Cn3cccn3)c(O)ccc12 [Compound 11j] | 14.3 ± 2 | 84.1

Continued by falling IC50, values first:

Row | IC50 [µM] | inhibition at 25 µM [%] | Compound
9 | 25.5 ± 7.9 | 48.6 | COc1ccc(-c2c(C)oc3c(Cn4cnc5ccccc54)c(O)ccc3c2=O)cc1 [Compound 10f]
10 | 23.9 ± 2.3 | 50.3 | COc1ccc(-c2coc3c(Cn4cc5ccccc5n4)c(O)ccc3c2=O)cc1 [Compound 14b]
11 | 23.6 ± 1.8 | 53.4 | Cc1cc(=O)oc2c(Cn3ccnc3)c(O)ccc12 [Compound 9b]
12 | 20.6 ± 2.1 | 64.6 | COc1ccc(-c2coc3c(Cn4cnc5ccccc54)c(O)ccc3c2=O)cc1 [Compound 10d]
13 | 5.8 ± 0.2 | 94 | Cc1cc(C)n(Cc2c(O)ccc3c(=O)c(-c4ccc(OC(F)(F)F)cc4)coc23)n1 [Compound 12i]
